The test system of series [1] is platelet. The note with it: risk of causing thrombocytopenia; cited from earlier work.
Series [2] concerns Vero cells. Description: Cell spread area after senescence induction. In kind it is cell-based, African monkey. The note with it: senescence induced by the agent, compared to normal control cells; FIG. 1C. The method, then:
(§1) Vero cells were treated with the stressors including 200 μM H2O2, 4 mM of sodium butyrate (SB) or 25 μM of bleomycin sulphate (BS) and incubated for 36-48 hours. After washing with PBS and then replacing growth medium with fresh medium, cells were incubated for four days to confirm the growth arrest of senescent cells. […] Four criteria were used to determine if cells were senescent; (1) cell cycle arrest by determining the growth rate, (2) Increase in cell spread area, (3) development of senescence associated secretory phonotype (SASP) in culture medium, and (4) beta-gal staining. Images of cells were captured with an Evos microscope at 10× magnification after treatment and 48 hours post treatment.
Senescence was detected by the beta-galactosidase senescence staining kit as per manufacturer's protocol. Briefly, sub confluent senescent cells were stained by the SA-beta galactosidase (β-gal) staining solution and incubated overnight at 37° C. The β-gal-stained cells appeared blue and were senescent cells. The percentages of β-gal positive cells were determined by counting the number of blue cells and dividing by the total number of cells. Cell spread area was determined by capturing the mages of cells with a 10× objective using an Evos microscope. Then, ImageJ software was used to calculate spread area by manually encircling the cell periphery of each cell. A minimum of 150 cells was used for the analysis. To determine the SASP activity, the senescent cells were cultured for one to three days and then supernatant was collected from each dish. This supernatant was used to culture normal cells. Development of a senescence phenotype by the normal cells in supernatant medium confirmed that senescent cells were secreting SASP.

In series [3] the test system is Vero cells. In words: Proliferation (growth rate, fold change in cell number) of cells after senescence induction. As to conditions: senescence induced by the agent; 48 hours of incubation; control cells approximately eight-fold change; FIG. 1B. In kind it is cell-based, African monkey. The method, then:
as §1
To measure growth by the increase in cell number, 15 random images were captured, then the average number of cells were determined, which was divided by the area of one frame to get the cell density (cells/cm^2). Then this seeding density was multiplied by the total area of the dish or well to obtain the total number of cells after ultrasound (US) treatment and after 48 hours of incubation. The total number of cells at 48 hours was divided by the total number of cells just after the treatment to determine the growth rate. A ratio was one would be an indication of no growth.

Series [4] has as its system Sirtuin1. In words: LFU rejuvenation of senescent cells in presence of Sirtuin1 inhibitor. In kind it is cell-based, Human. As to conditions: HFF cells with ultrasound treatment in presence of drug; FIG. 7. The method, then: Passage 15-24 HFF cells were treated with ultrasound at the optimized frequency, power and duty cycle. Cell proliferation was determined by counting the number of cells at the time of seeding and 48 hours after ultrasound (US) treatment. […] In the case of P24 HFF cells, they were treated with ultrasound and incubated for 96 hours prior to trypsinization, reseeding and incubation for 48 hours. Proliferation and morphology were measured after 48 hours of incubation.
FIG. 7A is a schematic of resveratrol and EX-527 treatment, followed by ultrasound treatment and medium change. FIG. 7B is a bar graph comparing the fold change in cell number of untreated control HFF cells in presence of EX-527.
FIG. 7C is a bar graph comparing the fold change in cell number of treated P19 cells in the presence of drug. FIG. 7D is a set of images comparing the immunofluorescence staining of Sirt1 in untreated and US treated HFF cells. FIG. 7E is bar graph comparing the sirt1 expression by intensity ratio of sirt1 and DAPI. Results are shown as mean±S.D. **p value <0.02 and ‘non-significant’ p value >0.05.

We go through six compounds from US20240001155A1, “REVERSAL OF CELLULAR SENESCENCE BY TREATMENT WITH LOW FREQUENCY ULTRASOUND” (Mechanobiologics, Inc., priority 2022, published 2024).

Consider `CC1(C)CCC(c2ccc(Cl)cc2)=C(CN2CCN(c3ccc(C(=O)NS(=O)(=O)c4ccc(N[C@H](CCN5CCOCC5)CSc5ccccc5)c(S(=O)(=O)C(F)(F)F)c4)cc3)CC2)C1` [ABT263], for which, in series [1], the toxicity entry was “dose-limiting platelet toxicity”. Take `COc1cccc2c1C(=O)c1c(O)c3c(c(O)c1C2=O)C[C@@](O)(C(=O)CO)C[C@@H]3O[C@H]1C[C@H](N)[C@H](O)[C@H](C)O1` [Doxorubicin]: the spread area result in series [2] is on record as “enlarged”. In series [3], the “proliferation (fold change)” value is given as “non proliferative”. For the compound `NC(=O)C1CCCc2c1[nH]c1ccc(Cl)cc21` (stereo not shown) [EX-527], in series [4], the “LFU rejuvenation of senescent cells” value is “blocked”. Consider `OO` [H2O2, hydrogen peroxide], for which, in series [2], the spread area entry was “enlarged”. Moreover, the “proliferation (fold change)” value in series [3] is recorded as “non proliferative”.

On to `CCCC(=O)[O-].[Na+]` [sodium butyrate], for which the spread area result in series [2] is “enlarged”. In addition, the “proliferation (fold change)” value in series [3] is “non proliferative”. Taken in the same sequence, the figures for Bleomycin Sulphate were “enlarged” and “non proliferative”.
